{"source": "paper PMC5078040", "about": "(Oncotarget, 2016)", "key": {"[1]": {"target": "T1, ABL1(E255K)-phosphorylated (Homo sapiens, UniProt P00519, E255K)", "T1 construct": "purchased DiscoveRx KINOMEscan", "assay": "KinomeScan", "assay_type": "binding", "conditions": "1uM"}, "[2]": {"target": "T2, BRSK1 (Homo sapiens, UniProt Q8TDC3)", "T2 construct": "purchased DiscoveRx KINOMEscan", "assay": "KinomeScan", "assay_type": "binding", "conditions": "1uM"}, "[3]": {"target": "T3, CAMK1G (Homo sapiens, UniProt Q96NX5)", "T3 construct": "purchased DiscoveRx KINOMEscan", "assay": "KinomeScan", "assay_type": "binding", "conditions": "1uM"}, "[4]": {"target": "T4, CDK9 (Homo sapiens, UniProt P50750)", "T4 construct": "purchased DiscoveRx KINOMEscan", "assay": "KinomeScan", "assay_type": "binding", "conditions": "1uM"}, "[5]": {"target": "T5, CHEK2 (Homo sapiens, UniProt O96017)", "T5 construct": "purchased DiscoveRx KINOMEscan", "assay": "KinomeScan", "assay_type": "binding", "conditions": "1uM"}, "[6]": {"target": "T6, CLK2 (Homo sapiens, UniProt P49760)", "T6 construct": "purchased DiscoveRx KINOMEscan", "assay": "KinomeScan", "assay_type": "binding", "conditions": "1uM"}, "[7]": {"target": "T7, CSNK1A1L (Homo sapiens, UniProt Q8N752)", "T7 construct": "purchased DiscoveRx KINOMEscan", "assay": "KinomeScan", "assay_type": "binding", "conditions": "1uM"}, "[8]": {"target": "T8, CSNK1G2 (Homo sapiens, UniProt P78368)", "T8 construct": "purchased DiscoveRx KINOMEscan", "assay": "KinomeScan", "assay_type": "binding", "conditions": "1uM"}, "[9]": {"target": "T9, FLT3(R834Q) (Homo sapiens, UniProt P36888, R834Q)", "T9 construct": "purchased DiscoveRx KINOMEscan", "assay": "KinomeScan", "assay_type": "binding", "conditions": "1uM"}, "[10]": {"target": "T10, KIT(D816V) (Homo sapiens, UniProt P10721, D816V)", "T10 construct": "purchased DiscoveRx KINOMEscan", "T10 sequence (P10721 26-976 D816V)": "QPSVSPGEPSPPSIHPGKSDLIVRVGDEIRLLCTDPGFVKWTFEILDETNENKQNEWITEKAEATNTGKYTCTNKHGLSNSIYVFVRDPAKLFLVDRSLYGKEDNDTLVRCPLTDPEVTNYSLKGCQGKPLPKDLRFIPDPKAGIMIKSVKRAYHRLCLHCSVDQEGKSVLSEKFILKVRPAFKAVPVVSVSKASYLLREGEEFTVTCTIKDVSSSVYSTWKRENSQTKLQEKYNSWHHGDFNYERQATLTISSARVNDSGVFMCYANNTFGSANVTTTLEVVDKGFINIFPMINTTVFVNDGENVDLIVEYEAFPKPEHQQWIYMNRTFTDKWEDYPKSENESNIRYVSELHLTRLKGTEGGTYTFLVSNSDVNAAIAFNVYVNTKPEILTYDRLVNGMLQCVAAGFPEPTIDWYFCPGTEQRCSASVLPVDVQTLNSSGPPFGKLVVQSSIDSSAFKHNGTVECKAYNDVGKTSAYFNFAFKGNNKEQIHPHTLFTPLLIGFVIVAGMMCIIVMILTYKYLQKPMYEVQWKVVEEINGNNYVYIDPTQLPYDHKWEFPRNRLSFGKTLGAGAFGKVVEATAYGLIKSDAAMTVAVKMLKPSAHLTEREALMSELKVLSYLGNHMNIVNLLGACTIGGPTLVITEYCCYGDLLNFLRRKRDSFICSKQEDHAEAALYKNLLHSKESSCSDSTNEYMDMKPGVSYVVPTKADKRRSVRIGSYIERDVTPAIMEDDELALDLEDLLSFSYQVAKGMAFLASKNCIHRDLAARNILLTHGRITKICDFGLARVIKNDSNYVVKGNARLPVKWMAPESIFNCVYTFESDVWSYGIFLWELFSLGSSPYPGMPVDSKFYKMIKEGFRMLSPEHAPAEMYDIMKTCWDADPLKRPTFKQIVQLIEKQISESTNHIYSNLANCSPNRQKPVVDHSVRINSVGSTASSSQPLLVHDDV", "assay": "KinomeScan", "assay_type": "binding", "conditions": "1uM"}, "[11]": {"target": "T11, KIT(V559D,V654A) (Homo sapiens, UniProt P10721, V559D/V654A)", "T11 construct": "purchased DiscoveRx KINOMEscan", "T11 sequence (P10721 26-976 V559D/V654A)": "as the sequence (P10721 26-976 D816V) above, with V534D, V629A, V791D counted along it", "assay": "KinomeScan", "assay_type": "binding", "conditions": "1uM"}, "[12]": {"target": "T12, MAP4K3 (Homo sapiens, UniProt Q8IVH8)", "T12 construct": "purchased DiscoveRx KINOMEscan", "assay": "KinomeScan", "assay_type": "binding", "conditions": "1uM"}, "[13]": {"target": "T13, NEK1 (Homo sapiens, UniProt Q96PY6)", "T13 construct": "purchased DiscoveRx KINOMEscan", "assay": "KinomeScan", "assay_type": "binding", "conditions": "1uM"}, "[14]": {"target": "T14, NLK (Homo sapiens, UniProt Q9UBE8)", "T14 construct": "purchased DiscoveRx KINOMEscan", "assay": "KinomeScan", "assay_type": "binding", "conditions": "1uM"}, "[15]": {"target": "T15, PAK1 (Homo sapiens, UniProt Q13153)", "T15 construct": "purchased DiscoveRx KINOMEscan", "assay": "KinomeScan", "assay_type": "binding", "conditions": "1uM"}, "[16]": {"target": "T16, PAK2 (Homo sapiens, UniProt Q13177)", "T16 construct": "purchased DiscoveRx KINOMEscan", "assay": "KinomeScan", "assay_type": "binding", "conditions": "1uM"}, "[17]": {"target": "T17, PCTK1 (Homo sapiens, UniProt Q00536)", "T17 construct": "purchased DiscoveRx KINOMEscan", "assay": "KinomeScan", "assay_type": "binding", "conditions": "1uM"}, "[18]": {"target": "T18, RET(V804L) (Homo sapiens, UniProt P07949, V804L)", "T18 construct": "purchased DiscoveRx KINOMEscan", "T18 sequence (P07949 29-1114 V804L)": "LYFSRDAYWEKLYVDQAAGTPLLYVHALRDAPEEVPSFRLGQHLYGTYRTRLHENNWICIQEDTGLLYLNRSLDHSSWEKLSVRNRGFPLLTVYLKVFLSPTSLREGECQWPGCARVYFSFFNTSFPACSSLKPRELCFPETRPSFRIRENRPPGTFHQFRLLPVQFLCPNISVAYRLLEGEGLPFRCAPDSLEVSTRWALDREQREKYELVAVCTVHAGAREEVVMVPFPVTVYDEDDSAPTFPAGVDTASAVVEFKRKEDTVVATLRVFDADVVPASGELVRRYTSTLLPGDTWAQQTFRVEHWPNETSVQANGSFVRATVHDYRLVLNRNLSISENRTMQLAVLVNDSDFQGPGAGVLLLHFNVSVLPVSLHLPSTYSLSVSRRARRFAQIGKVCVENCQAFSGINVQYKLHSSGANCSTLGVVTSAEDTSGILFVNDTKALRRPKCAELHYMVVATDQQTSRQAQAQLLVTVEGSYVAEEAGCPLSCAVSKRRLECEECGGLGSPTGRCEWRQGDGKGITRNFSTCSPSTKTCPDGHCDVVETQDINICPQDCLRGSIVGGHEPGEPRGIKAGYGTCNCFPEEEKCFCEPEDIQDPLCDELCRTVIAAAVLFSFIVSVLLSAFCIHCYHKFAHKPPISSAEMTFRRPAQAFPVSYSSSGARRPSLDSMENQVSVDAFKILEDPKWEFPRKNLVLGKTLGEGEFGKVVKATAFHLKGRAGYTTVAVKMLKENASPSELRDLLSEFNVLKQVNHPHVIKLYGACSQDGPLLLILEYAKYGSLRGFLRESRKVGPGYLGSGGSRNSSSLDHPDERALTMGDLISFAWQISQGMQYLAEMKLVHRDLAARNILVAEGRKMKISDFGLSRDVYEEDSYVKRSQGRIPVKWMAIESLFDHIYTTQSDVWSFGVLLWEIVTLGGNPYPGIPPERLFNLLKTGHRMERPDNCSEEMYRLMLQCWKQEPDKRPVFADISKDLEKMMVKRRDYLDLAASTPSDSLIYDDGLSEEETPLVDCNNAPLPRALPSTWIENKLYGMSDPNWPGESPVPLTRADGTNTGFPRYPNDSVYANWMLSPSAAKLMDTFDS", "assay": "KinomeScan", "assay_type": "binding", "conditions": "1uM"}, "[19]": {"target": "T19, SRPK2 (Homo sapiens, UniProt P78362)", "T19 construct": "purchased DiscoveRx KINOMEscan", "T19 sequence (P78362 whole entry)": "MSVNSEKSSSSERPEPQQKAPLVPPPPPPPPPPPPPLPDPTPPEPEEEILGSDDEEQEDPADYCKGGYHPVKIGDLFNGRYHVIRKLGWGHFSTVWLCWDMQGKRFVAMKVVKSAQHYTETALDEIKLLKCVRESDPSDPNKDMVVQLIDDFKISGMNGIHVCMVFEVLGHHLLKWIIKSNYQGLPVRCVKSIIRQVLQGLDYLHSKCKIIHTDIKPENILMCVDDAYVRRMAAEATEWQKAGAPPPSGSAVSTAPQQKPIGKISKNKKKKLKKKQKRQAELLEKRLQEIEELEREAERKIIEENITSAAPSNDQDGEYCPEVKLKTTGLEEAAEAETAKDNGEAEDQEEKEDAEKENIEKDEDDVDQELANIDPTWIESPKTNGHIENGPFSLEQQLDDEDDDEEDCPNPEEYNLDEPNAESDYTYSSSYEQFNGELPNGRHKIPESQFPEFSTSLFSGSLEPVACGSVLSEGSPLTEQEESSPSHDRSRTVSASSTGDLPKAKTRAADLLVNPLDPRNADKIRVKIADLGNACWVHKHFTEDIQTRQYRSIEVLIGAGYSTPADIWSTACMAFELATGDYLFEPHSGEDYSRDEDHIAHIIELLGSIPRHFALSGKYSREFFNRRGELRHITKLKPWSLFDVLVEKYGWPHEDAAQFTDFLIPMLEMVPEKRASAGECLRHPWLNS", "assay": "KinomeScan", "assay_type": "binding", "conditions": "1uM"}, "[20]": {"target": "PI3Kδ (Homo sapiens, UniProt O00329)", "sequence (O00329 whole entry, canonical isoform)": "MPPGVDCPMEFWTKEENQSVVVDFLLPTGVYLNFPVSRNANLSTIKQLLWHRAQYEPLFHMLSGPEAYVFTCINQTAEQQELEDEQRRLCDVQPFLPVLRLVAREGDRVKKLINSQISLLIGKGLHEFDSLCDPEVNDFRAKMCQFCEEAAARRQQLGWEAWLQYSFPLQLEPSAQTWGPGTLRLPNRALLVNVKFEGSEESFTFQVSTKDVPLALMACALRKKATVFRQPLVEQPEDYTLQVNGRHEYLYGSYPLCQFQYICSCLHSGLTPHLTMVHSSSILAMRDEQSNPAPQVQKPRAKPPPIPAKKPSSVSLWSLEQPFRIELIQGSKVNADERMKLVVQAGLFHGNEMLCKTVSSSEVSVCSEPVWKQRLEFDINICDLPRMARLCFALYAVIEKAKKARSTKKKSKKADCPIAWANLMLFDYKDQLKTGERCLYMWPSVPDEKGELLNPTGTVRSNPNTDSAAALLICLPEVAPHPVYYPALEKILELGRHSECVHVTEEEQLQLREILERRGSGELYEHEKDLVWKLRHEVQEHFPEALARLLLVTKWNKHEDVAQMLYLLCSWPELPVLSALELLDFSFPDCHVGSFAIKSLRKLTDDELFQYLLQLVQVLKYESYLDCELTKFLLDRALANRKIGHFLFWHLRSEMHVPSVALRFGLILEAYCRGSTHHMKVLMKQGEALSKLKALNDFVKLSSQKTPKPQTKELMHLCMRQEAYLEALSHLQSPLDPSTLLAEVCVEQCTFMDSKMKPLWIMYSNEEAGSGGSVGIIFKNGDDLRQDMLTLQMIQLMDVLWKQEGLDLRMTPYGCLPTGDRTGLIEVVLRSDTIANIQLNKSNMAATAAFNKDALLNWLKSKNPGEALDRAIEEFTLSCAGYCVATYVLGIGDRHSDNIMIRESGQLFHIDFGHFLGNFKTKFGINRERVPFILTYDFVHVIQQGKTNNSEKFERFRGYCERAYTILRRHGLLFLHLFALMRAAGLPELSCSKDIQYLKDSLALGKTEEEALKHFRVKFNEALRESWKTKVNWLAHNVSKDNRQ", "sequence (P27986 whole entry partner, canonical isoform)": "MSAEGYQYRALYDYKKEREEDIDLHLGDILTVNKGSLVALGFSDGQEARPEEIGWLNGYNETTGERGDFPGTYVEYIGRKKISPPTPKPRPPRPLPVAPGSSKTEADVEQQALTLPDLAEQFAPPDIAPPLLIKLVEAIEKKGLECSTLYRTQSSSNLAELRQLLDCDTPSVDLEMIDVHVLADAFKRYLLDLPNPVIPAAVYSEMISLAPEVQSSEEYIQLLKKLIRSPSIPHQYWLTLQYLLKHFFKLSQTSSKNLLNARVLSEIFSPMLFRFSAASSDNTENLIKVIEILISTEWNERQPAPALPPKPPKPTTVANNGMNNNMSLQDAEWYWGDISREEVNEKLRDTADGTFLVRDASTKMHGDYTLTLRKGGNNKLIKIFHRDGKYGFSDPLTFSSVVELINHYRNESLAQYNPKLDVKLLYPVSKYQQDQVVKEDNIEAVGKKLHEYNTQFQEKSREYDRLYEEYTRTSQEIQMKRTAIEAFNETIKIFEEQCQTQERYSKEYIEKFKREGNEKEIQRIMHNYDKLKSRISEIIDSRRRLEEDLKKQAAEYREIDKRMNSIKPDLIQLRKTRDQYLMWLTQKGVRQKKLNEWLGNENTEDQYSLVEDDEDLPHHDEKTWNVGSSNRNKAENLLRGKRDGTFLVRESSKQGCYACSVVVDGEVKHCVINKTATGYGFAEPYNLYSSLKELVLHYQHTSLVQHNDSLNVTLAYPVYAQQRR", "assay": "PI3Ks isoform in cell EC50 assay (AKT phosphorylation, Western Blotting)", "assay_type": "cell-based", "design": "endogenous in cells; host or cells: Raji", "conditions": "Raji cells, 1μg/ml anti-IgM, Akt phosphorylation at T308; read-out: cellular EC50 PI3K Delta"}}}
{"smiles": "Cc1nc(NC(=O)[C@@H](N)C(C)C)sc1-c1cnc(Cl)c(NS(=O)(=O)c2ccccc2)c1", "note": "[PI3KD-IN-015]", "values": [{"measurement": "KinomeScan ABL1(E255K)-phosphorylated", "setting": "[1]", "value": 77}, {"measurement": "KinomeScan BRSK1", "setting": "[2]", "value": 100}, {"measurement": "KinomeScan CAMK1G", "setting": "[3]", "value": 94}, {"measurement": "KinomeScan CDK9", "setting": "[4]", "value": 100}, {"measurement": "KinomeScan CHEK2", "setting": "[5]", "value": 88}, {"measurement": "KinomeScan CLK2", "setting": "[6]", "value": 90}, {"measurement": "KinomeScan CSNK1A1L", "setting": "[7]", "value": 100}, {"measurement": "KinomeScan CSNK1G2", "setting": "[8]", "value": 100}, {"measurement": "KinomeScan FLT3(R834Q)", "setting": "[9]", "value": 84}, {"measurement": "KinomeScan KIT(D816V)", "setting": "[10]", "value": 100}, {"measurement": "KinomeScan KIT(V559D,V654A)", "setting": "[11]", "value": 97}, {"measurement": "KinomeScan MAP4K3", "setting": "[12]", "value": 91}, {"measurement": "KinomeScan NEK1", "setting": "[13]", "value": 100}, {"measurement": "KinomeScan NLK", "setting": "[14]", "value": 92}, {"measurement": "KinomeScan PAK1", "setting": "[15]", "value": 100}, {"measurement": "KinomeScan PAK2", "setting": "[16]", "value": 89}, {"measurement": "KinomeScan PCTK1", "setting": "[17]", "value": 93}, {"measurement": "KinomeScan RET(V804L)", "setting": "[18]", "value": 97}, {"measurement": "KinomeScan SRPK2", "setting": "[19]", "value": 100}, {"measurement": "EC50", "setting": "[20]", "value": 13, "unit": "nM"}]}
